From patent publication US20050113410A1, “Pharmaceutical salts of zafirlukast” (priority 2003, published 2005)
Counter-ions that a name gives are not always drawn.

What was measured:
[1] = cited from earlier work
[2] = Stability of the crystalline form under aqueous conditions (conversion to neutral form, checked by PXRD); type: physicochemical
Excerpt: All powder x-ray diffraction patterns were obtained using the D/Max Rapid X-ray Diffractometer (D/Max Rapid, Contact Rigaku/MSC, 9009 New Trails Drive, The Woodlands, Tex., USA 77381-5209) equipped with a copper source (Cu/Kα1.5406 angstroms), manual x-y stage, and 0.3 mm collimator. The sample was loaded into a 0.3 mm boron rich glass capillary tube (e.g., Charles Supper Company, 15 Tech Circle, Natick, Mass. 01760-1024) by sectioning off one end of the tube and tapping the open, sectioned end into a bed of the powdered sample or into the sediment of a slurried precipitate. Note, precipitate can be amorphous or crystalline. The loaded capillary was mounted in a holder that was secured into the x-y stage. A diffractogram was acquired (e.g., Control software: RINT Rapid Control Software, Rigaku Rapid/XRD, version 1.0.0, © 1999 Rigaku Co.) under ambient conditions at a power setting of 46 kV at 40 mA in reflection mode, while oscillating about the omega-axis from 0-5 degrees at 1 degree/s and spinning about the phi-axis at 2 degrees/s. The exposure time was 15 minutes unless otherwise specified. […]

[3] = commercially available form (ACCOLATE), neutral molecule; cited from earlier work

COc1cc(C(=O)NS(=O)(=O)c2ccccc2C)ccc1Cc1cn(C)c2ccc(NC(=O)OC3CCCC3)cc12 [Amorphous neutral zafirlukast]
conversion of form in the presence of water [1]: convert to a monohydrate form

COc1cc(C(=O)NS(=O)(=O)c2ccccc2C)ccc1Cc1cn(C)c2ccc(NC(=O)OC3CCCC3)cc12 [potassium salt of zafirlukast]
PXRD diffractogram after exposure to aqueous conditions ([2]; after exposure to neutral or acidic aqueous conditions): remains unchanged
conversion back to the neutral form under aqueous conditions ([2]; aqueous conditions, either neutral or acidic): does not convert back to the neutral form

COc1cc(C(=O)NS(=O)(=O)c2ccccc2C)ccc1Cc1cn(C)c2ccc(NC(=O)OC3CCCC3)cc12 [zafirlukast, 4-(5-cyclopentyloxy-carbonylamino-1-methyl-indol-3-ylmethyl)-3-methoxy-N-o-tolylsulfonylbenzamide]
solubility in water [3]: essentially insoluble in water
